Consider 68 compounds from the PolyMetriX glass transition set.

Each structure is given as a SMILES string.

In turn, `*/C(CC)=C(/*)c1ccccc1` (repeat unit) gave a glass transition temperature of 200.00 °C.

Regarding `*/C=C/c1cccc(OC(=O)CCCCCCCCC(=O)Oc2cccc(-c3nnc(*)s3)c2)c1` (repeat unit), the glass transition temperature turned out to be 41.00 °C.

Compound `*CC#C/C(C#CCOC(=O)CCCCCCCCC(=O)O*)=C\c1ccc(C#Cc2ccc(C=C(C#Cc3ccccc3)C#Cc3ccccc3)cc2)cc1` (repeat unit) displayed a glass transition temperature of 60.00 °C.

In turn, `*CC#CCOC(=O)CCCCCCCCCCC(=O)O*` (repeat unit) registered a glass transition temperature of -27.00 °C.

As for `*CCCCCC(=O)Nc1ccc(Cc2ccc(NC(=O)CCCCCN3C(=O)c4ccc(C(=O)c5ccc6c(c5)C(=O)N(*)C6=O)cc4C3=O)cc2)cc1` (repeat unit), the glass transition temperature was found to be 187.00 °C.

Compound `*CCCCCC(=O)Nc1ccc(NC(=O)CCCCCN2C(=O)c3ccc(C(=O)c4ccc5c(c4)C(=O)N(*)C5=O)cc3C2=O)cc1` (repeat unit) had a glass transition temperature of 200.00 °C.

In turn, `*CCCCCC(=O)Nc1ccc(Oc2ccc(NC(=O)CCCCCN3C(=O)c4ccc(C(=O)c5ccc6c(c5)C(=O)N(*)C6=O)cc4C3=O)cc2)cc1` (repeat unit) registered a glass transition temperature of 195.00 °C.

With `*CCCCCC(=O)Nc1ccc(Oc2cccc(NC(=O)CCCCCN3C(=O)c4ccc(C(=O)c5ccc6c(c5)C(=O)N(*)C6=O)cc4C3=O)c2)cc1` (repeat unit), the glass transition temperature was 170.00 °C.

`*CCCCCC(=O)Oc1ccc(C2(c3ccc(OC(=O)c4ccc5c(c4)C(=O)N(*)C5=O)cc3)CCCCC2)cc1` (repeat unit) came in with a glass transition temperature of 122.00 °C.

Regarding `*CCCCCC(=O)Oc1ccc(OC(=O)c2ccc3c(c2)C(=O)N(*)C3=O)cc1` (repeat unit), the glass transition temperature was 89.00 °C.

For `*CCCCCC(=O)Oc1ccc2ccc(OC(=O)c3ccc4c(c3)C(=O)N(*)C4=O)cc2c1` (repeat unit), the glass transition temperature is 113.00 °C.

For the compound `*CCCCCCC(=O)N*` (repeat unit), the glass transition temperature came out at 52.00 °C.

Consider `*CCCCCCC(=O)O*` (repeat unit), for which the glass transition temperature was -14.00 °C.

In turn, `*CCCCCCCCC(*)Cl` (repeat unit) yielded a glass transition temperature of -33.00 °C.

The compound `*CCCCCCCCC(=O)N*` (repeat unit) came in with a glass transition temperature of 48.00 °C.

As to `*CCCCCCCCCC(c1ccc(O)cc1)C(*)c1ccc(O)cc1C` (repeat unit), the glass transition temperature is -1.00 °C.

`*CCCCCCCCCCC(=O)N*` (repeat unit) showed a glass transition temperature of 46.00 °C.

Take `*CCCCCCCCCCC(=O)Nc1ccc(NC(=O)CCCCCCCCCCN2C(=O)c3ccc(C(=O)c4ccc5c(c4)C(=O)N(*)C5=O)cc3C2=O)cc1` (repeat unit): the glass transition temperature turned out to be 125.00 °C.

`*CCCCCCCCCCC(=O)Nc1ccc(Oc2ccc(Oc3ccc(NC(=O)CCCCCCCCCCN4C(=O)c5ccc(C(=O)c6ccc7c(c6)C(=O)N(*)C7=O)cc5C4=O)cc3)cc2)cc1` (repeat unit) yielded a glass transition temperature of 122.00 °C.

`*CCCCCCCCCCC(=O)O*` (repeat unit) returned a glass transition temperature of -46.0 °C.

Consider `*CCCCCCCCCCCC(=O)Oc1ccc(C2(c3ccc(OC(=O)c4ccc5c(c4)C(=O)N(*)C5=O)cc3)CCCCC2)cc1` (repeat unit), for which the glass transition temperature worked out at 96.00 °C.

Take `*CCCCCCCCCCCC(=O)Oc1ccc2cc(OC(=O)CCCCCCCCCCCn3c(=O)c4cc5c(=O)n(*)c(=O)c5cc4c3=O)ccc2c1` (repeat unit): the glass transition temperature is 62.00 °C.

For the compound `*CCCCCCCCCCCC(=O)Oc1ccc2ccc(OC(=O)c3ccc4c(c3)C(=O)N(*)C4=O)cc2c1` (repeat unit), the glass transition temperature came out at 98.00 °C.

On to `*CCCCCCCCCCCC(c1ccc(O)cc1)C(*)c1ccc(O)cc1C` (repeat unit), for which the glass transition temperature turned out to be 4.00 °C.

As to `*CCCCCCCCCCCCCCCCCCNC(=O)CCCCCCCCCCCCCCCCC(=O)N*` (repeat unit), the glass transition temperature stood at 50.00 °C.

`*CCCCCCCCCCCCCNC(=O)CCCCCCCCCCCC(=O)N*` (repeat unit): the glass transition temperature was determined as 56.50 °C.

For the compound `*CCCCCCCCCCCCNC(=O)CCCCCCCCCCCCCCCCCCC(=O)N*` (repeat unit), the glass transition temperature stood at 221.60 °C.

`*CCCCCCCCCCCNC(=O)CCCCCCCCCCC(=O)N*` (repeat unit): the glass transition temperature came out at 39.00 °C.

In turn, `*CCCCCCCCCCNC(=O)CCCCCCCCCCCCCCC(=O)N*` (repeat unit) registered a glass transition temperature of 45.00 °C.

`*CCCCCCCCNC(=O)CCCCCCCCC(=O)N*` (repeat unit) registered a glass transition temperature of 54.00 °C.

`*CCCCCCCCNC(=O)CCCCCCCCCCC(=O)N*` (repeat unit): the glass transition temperature stood at 50.00 °C.

`*CCCCCCCCc1nc2cc(NC(=O)CCCCCCCCC(=O)Nc3ccc4oc(*)nc4c3)ccc2o1` (repeat unit) gave a glass transition temperature of 93.00 °C.

Compound `*CCCCCCN(C(=O)C(F)(F)C(F)(F)C(F)(F)C(=O)N(*)C(C)C)C(C)C` (repeat unit) gave a glass transition temperature of 142.50 °C.

In turn, `*CCCCCCN(C)C(=O)CCC(=O)N(*)C` (repeat unit) came in with a glass transition temperature of 7.50 °C.

In the case of `*CCCCCCNC(=O)CCCCCCCCCCCCCCC(=O)N*` (repeat unit), the glass transition temperature worked out at 40.00 °C.

As for `*CCCCCCOC(=O)NNC(=O)CCCCCCCCC(=O)NNC(=O)O*` (repeat unit), the glass transition temperature worked out at 45.00 °C.

`*CCCCC[Si](*)(C)c1ccccc1` (repeat unit) returned a glass transition temperature of -10.40 °C.

Compound `*CCCCP(C)(=O)CCCNC(=O)CCCCC(=O)N*` (repeat unit) had a glass transition temperature of 59.00 °C.

Compound `*CCCN(C)c1ccc(C(=O)c2ccc(N(*)C)cc2)cc1` (repeat unit) showed a glass transition temperature of 101.00 °C.

On to `*CCCOC(=O)NNC(=O)CCCCCCCCC(=O)NNC(=O)O*` (repeat unit), for which the glass transition temperature amounted to 22.00 °C.

Compound `*CCOC(=O)NNC(=O)CCCCCCCCC(=O)NNC(=O)O*` (repeat unit) gave a glass transition temperature of 63.00 °C.

Regarding `*CCOCCOC(=O)CCCCCCCCCCC(=O)O*` (repeat unit), the glass transition temperature is -71.00 °C.

For the compound `*CCc1ccc(CCNC(=O)CCCCCCCCC(=O)N*)cc1` (repeat unit), the glass transition temperature is 105.00 °C.

Compound `*CCc1ccc(CCNC(=O)CCCCCCCCCC(=O)N*)cc1` (repeat unit) gave a glass transition temperature of 96.00 °C.

Turning to `*CCc1ccc(CCNC(=O)CCCCCCCCCCCCC(=O)N*)cc1` (repeat unit), the glass transition temperature amounted to 93.00 °C.

As to `*Cc1ccc(CNC(=O)CCCCCCCCCCCCCC(=O)N*)cc1` (repeat unit), the glass transition temperature was 90.00 °C.

Take `*NC1CCC(CC2CCC(NC(=O)CCCCCCCCCCC(*)=O)CC2)CC1` (repeat unit): the glass transition temperature was 142.00 °C.

In the case of `*Nc1ccc(Cc2ccc(NC(=O)c3cc(NC(=O)C(C(C)CC)N4C(=O)c5ccccc5C4=O)cc(C(*)=O)c3)cc2)cc1` (repeat unit), the glass transition temperature was found to be 195.00 °C.

In turn, `*Nc1ccc(Cc2ccc(NC(=O)c3cc(NC(=O)CCCCCN4C(=O)c5ccccc5C4=O)cc(C(*)=O)c3)cc2)cc1` (repeat unit) gave a glass transition temperature of 195.00 °C.

In the case of `*Nc1ccc(Cc2ccc(NC(=O)c3cc(NC(=O)c4ccccc4)cc(C(*)=O)c3)cc2)cc1` (repeat unit), the glass transition temperature came out at 285.00 °C.

Turning to `*Nc1ccc(NC(=O)c2cc(-c3ccc(C(=O)OCC)c(C(*)=O)c3)ccc2C(=O)OCC)cc1` (repeat unit), the glass transition temperature was determined as 231.70 °C.

`*Nc1ccc(NC(=O)c2cc(NC(=O)c3ccccc3)cc(C(*)=O)c2)cc1` (repeat unit) had a glass transition temperature of 321.00 °C.

As to `*Nc1cccc(NC(=O)CCCCCCCCC(*)=O)c1` (repeat unit), the glass transition temperature worked out at 110.00 °C.

The compound `*O[Si](C)(C)CCCCCCCC[Si](*)(C)C` (repeat unit) had a glass transition temperature of -88.00 °C.

In turn, `*O[Si](C)(C)CCCCCC[Si](*)(C)C` (repeat unit) returned a glass transition temperature of -90.00 °C.

In turn, `*Oc1ccc(C(=O)c2cccc(NC(=O)CCCCCCCCC(=O)Nc3ccc(C(=O)c4ccc(*)cc4)cc3)c2)cc1` (repeat unit) returned a glass transition temperature of 148.00 °C.

The compound `*Oc1ccc(C2(c3ccc(OC(=O)CCCCCCCCC(*)=O)cc3)c3ccccc3Cc3ccccc32)cc1` (repeat unit) yielded a glass transition temperature of 134.00 °C.

As to `*Oc1ccc(C2(c3ccc(OC(=O)CCCCCCCCCCC(*)=O)cc3)c3ccccc3-c3ccccc32)cc1` (repeat unit), the glass transition temperature came to 117.00 °C.

For `*Oc1ccc(NC(=O)CCCCCCCCCC(=O)Nc2ccc(*)cc2)cc1` (repeat unit), the glass transition temperature was 150.00 °C.

`*Oc1ccc(S(=O)(=O)N(C)CCCCN(C)S(=O)(=O)c2ccc(Oc3ccc(C(C)(C)c4ccc(*)cc4)cc3)cc2)cc1` (repeat unit) gave a glass transition temperature of 120.00 °C.

Take `*Oc1cccc(NC(=O)CCCCCCCCCCC(=O)Nc2ccc(*)cc2)c1` (repeat unit): the glass transition temperature was found to be 110.00 °C.

`*c1ccc(NC(=O)CCCCCCCCC(=O)Nc2ccc(S(*)(=O)=O)cc2)cc1` (repeat unit) showed a glass transition temperature of 72.34 °C.

`*c1ccc(NC(=O)CCCCCCCCCCC(=O)Nc2ccc(S(*)(=O)=O)cc2)cc1` (repeat unit) returned a glass transition temperature of 160.00 °C.

`*c1ccc(OC(=O)CCCCCCCCCCCCCCCCCCCCC(=O)Oc2ccc(N3C(=O)c4ccc(-c5ccc6c(c5)C(=O)N(*)C6=O)cc4C3=O)cc2)cc1` (repeat unit) had a glass transition temperature of 140.00 °C.

Compound `*c1ccc2c(c1)C(=O)N(c1ccc(Oc3ccc(N4C(=O)c5ccc(C(C)(C)CCCCCCCCC(*)(C)C)cc5C4=O)cc3)cc1)C2=O` (repeat unit) showed a glass transition temperature of 123.7 °C.

As to `*c1cccc(NC(=O)CCCCCCCCC(=O)Nc2cccc(S(*)(=O)=O)c2)c1` (repeat unit), the glass transition temperature came to 112.00 °C.

As for `*c1ncnc(N(CCCCCCCCCCN(*)c2ccccc2)c2ccccc2)n1` (repeat unit), the glass transition temperature stood at 55.00 °C.

For the compound `*c1ncnc(N(CCCCN(*)c2ccccc2)c2ccccc2)n1` (repeat unit), the glass transition temperature came to 91.00 °C.
